According to patent US6750381B2, “Pathogen-resistant plants transformed with a DNA encoding sarcotoxin 1A linked to a signal peptide and a method for production thereof” (National Institute of Agrobiological Sciences, priority 1996, dated 2004):

Columns and labels:
Experiment in all cases: Anti-fungal activity of Sarcotoxin 1a in vitro (hyphal area on agar plate)
Type in all cases: cell-based
Fusarium oxysporum F-3 = details: 5-fold diluted PDA medium, 22° C. in the dark; FIG. 12
Experimental: (§1) Sarcotoxin 1a was measured for an anti-fungal activity against Fusarium oxysporum F-3, Rhizoctonia solani, and Rhizoctonia solani AG-4 1272.
(§2) It has not been known if Sarcotoxin 1a has an anti-fungal activity and how to measure the activity. Therefore, a pre-culture medium and a test medium were variously studied. The pre-culture medium, in which a lawn may be uniformly enlarged within a short period of time, was selected. The test medium, which controls the extension of hyphae as much as possible and allows easy confirmation, was selected.
(§3) (i) Czapek's modified medium (10 g of sucrose, 0.5 g of MgSO4.7H2O, 2.0 g of NaNO3, 0.01 g of Fe2(SO4)3, 1.0 g of K2HPO4, 0.5 g of KCl, 15 g of agarose per liter, pH 6.8 to 7.0; used for Rhizoctonia solani AG-4 1272), (ii) 5-fold diluted PDA medium (7.8 g of Bacto (Trademark) Poteto Dextrose Agar, 12 g of agarose per liter; used for Fusarium oxysporum F-3), (iii) Na2HPO4—NaH2PO4 buffer (15 g/l agarose, pH 5.8; used for Rhizoctonia solani).
(§4) The media for detection were autoclaved. When the media was cooled to 50° C., Sarcotoxin 1a (synthesized by a peptide synthesis and purified to 99% or more by HPLC) was added to each medium. Each of the resulting media was dispensed into a 12-well microplate at 400 μl per well and solidified.
(§5) Fusarium oxysporum F-3, Rhizoctonia solani, and Rhizoctonia solani AG-4 1272 were respectively pre-cultured in a PDA media (39 g/l Bacto (Trademark) Poteto Dextrose Agar) at 22° C. for 2 days.
(§6) An outermost lawn of each hypha spreading over almost the entire surface of the PDA medium of a 9 cm-petri dish was punched with a cork borer with a diameter of 4 mm, and each fungi was placed in the center of a well of a test plate in such a manner that the surface of the layer faced down. Each test plate for detection was kept at 22° C. in the dark.
(§7) Each test plate inoculated with the above-mentioned pathogenic fungi was measured for the size of each hypha growing under transmitted light at established periods, and the area of each hypha and a standard deviation were calculated (see FIGS. 12, 13, and 14). […]

[1] = test system: Rhizoctonia solani AG-4 1272; details: Czapek's modified medium, 22° C. in the dark; FIG. 13
Experimental: as §1, §2, §3, §4, §5, §6, §7

Rhizoctonia solani = details: Na2HPO4-NaH2PO4 buffer agarose pH 5.8, 22° C. in the dark; FIG. 14
Experimental: as §1, §2, §3, §4, §5, §6, §7

Measured: anti-fungal properties (area of each hypha)

Sarcotoxin 1a (GWLKKIGKKIERVGQHTRDATIQGLGIAQQAANVAATAR) [anti-bacterial peptide derived from Boettherisca peregrina (Diptera insect); synthesized by a peptide synthesis and purified to 99% or more by HPLC]
concentration-dependent manner: all assays above
